In patent US7422863B2, “Molting hormone receptor and method for screening ligand to the receptor” (Kumiai Chemical Industry Co., Ltd., priority 2003, dated 2008):
pKd: −log10 of the molar value. Entries after “also recorded” stand apart in the source; their conditions may differ.

What was measured:
Parameters in all cases: species or system Spodoptera litura
[1] = tested on: EcR-DF/USP-AE complex; test: Screening system: inhibition of [3H]ponasterone A binding to the complex by test compounds; conditions: for activity of binding to the EcR-DF/USP-AE complex: endocrine disrupters and female hormone, FIG. 25; for inhibition of the binding of [3H]ponasterone A to the complex: concentration of test compound changed, FIG. 24; for activity of binding to the complex: test compound 10,000 times stronger than [3H]ponasterone A
Method: In Example 7, a screening system used for screening an insect inhibitor was constructed based on the results of Examples 1 to 6. As described in Examples 1 to 6, when binding analysis was carried out using ponasterone A as an ecdysone agonist, ponasterone A binding to a complex consisting of EcR-DF and USP-AE was observed. In order to confirm whether or not this system functions as a screening system, the binding of the complex to other ecdysone agonists should also be observed. Thus, using 20-hydroxyecdysone that is an ecdysone active in living insect bodies and tebufenozide (RH-5992) that is a synthetic ecdysone agonist, the binding experiment was carried out between the […] and each of the above compounds.
First, EcR-DF and USP-AE were mixed into a binding buffer, and [^3H]ponasterone A was then added thereto in the same manner as in Example 4. Also, the same experiment was carried out with the exception that 20-hydroxyecdysone or tebufenozide that was 10,000 times stronger than [^3H]ponasterone A was added thereto, so as to obtain nonspecific binding. […] Thus, the same experiment was carried out while the concentration of 20-hydroxyecdysone or tebufenozide was changed.
Subsequently, in the present example, using a screening system in which ability to bind to the EcR-DF/USP-AE complex is used as an index, 4 types of compounds were evaluated in terms of such binding ability. As compounds to be evaluated, 4-nonylphenol, stilbestrol, and diethyl phthalate (endocrine disrupters), and estradiol-17β (female hormone) were used.

[2] = tested on: EcR-DF and USP-AE; test: [3H]ponasterone A binding experiment using COS-7 cell extracts
Method: (§1) Each expression plasmid DNA was independently introduced into COS-7 cells. 48 hours later, each extract was prepared from the cells. In addition, plasmid DNA into which EcR-AF had been inserted and plasmid DNA into which USP-AE had been inserted were co-introduced into COS-7 cells, and an extract was then prepared in the same manner. Moreover, plasmid DNA into which, EcR-DF had been inserted and plasmid DNA into which USP-AE had been inserted were co-introduced into COS-7 cells, and an extract was then prepared in the same manner. Furthermore, plasmid DNA into which EcR-AF had been inserted and plasmid DNA into which USP-DE had been inserted were co-introduced into COS-7 cells, and an extract was then prepared in the same manner. Further, plasmid DNA into which EcR-DF had been inserted and plasmid DNA into which USP-DE had been inserted were co-introduced into COS-7 cells, and an extract was then prepared in the same manner. The expression of a product of interest in the COS-7 cells was confirmed by Western blotting using an anti-FLAG antibody.
(§2) By the aforementioned operations, 4 types of extracts containing each of EcR-AF, EcR-DF, USP-AE, and USP-DE, an extract containing the coexpressed EcR-AF and USP-AE, an extract containing the coexpressed EcR-DF and USP-AE, an extract containing the coexpressed EcR-AF and USP-DE, and an extract containing the coexpressed EcR-DF and USP-DE, were prepared.
(§3) In order to prevent the non-specific binding of ponasterone A to a receptor (a complex consisting of an EcR recombinant and a USP recombinant), 1% BSA was first added to a binding buffer (20 mM HEPES (pH7.4)/5 mM DTT/1 nM PMSF). Thereafter, USP-AE or USP-DE was mixed with the EcR-AF, EcR-DF, EcR-DE, EcR-EF, or EcR-E, purified in Example 2. Thereafter, [^3H]ponasterone A ([24, 25, 26, 27-3H] Ponasterone A (American Radiolabeled Chemicals Inc.)) with a final concentration of 1.37 nM was further added thereto. The obtained mixture was reacted at 25° C. 40 minutes later, the reaction was terminated by addition of 200 μl of an activated carbon solution (0.5% Charcoal, dextran coated (SIGMA)/20 mm HEPES/50 mM NaCl). A supernatant fraction obtained after centrifugation was mixed with a liquid scintillator, and the radioactivity (DPM) of the obtained mixture was measured using a liquid scintillation counter (ALOKA LSC-5100). The obtained measurement value was defined as the total binding amount. Moreover, the same experiment was carried out with the exception that nonradioactive ponasterone A that was 10,000 times stronger than [^3H]ponasterone A was added. Then, the amount of a ligand non-specifically binding to a receptor was obtained. […]

[3] = tested on: EcR-DF and USP-DE; test: as above
Method: as §1, §2, §3

[4] = tested on: complex consisting of EcR-DF and USP-AE; test: [3H]ponasterone A binding experiment, charcoal dextran method, recombinants expressed in Escherichia coli
Text: (§4) In Example 4, in order to separate a binding form from a free form, the charcoal dextran method was applied. This is a common method applied when a steroid hormone is used as a ligand. By adding an activated carbon solution coated with dextran to a reaction solution when the reaction is terminated, a ligand that has not bound to a receptor is adsorbed on the activated carbon. Thereafter, the reaction solution is centrifuged, thereby separating an activated carbon fraction (precipitate fraction) from a supernatant fraction in which a receptor/ligand complex exists.
In order to prevent the non-specific binding of ponasterone A to a receptor (a complex consisting of an EcR recombinant and a USP recombinant), 1% BSA was first added to a binding buffer (20 mM HEPES (pH7.4)/5 mM DTT/1 nM PMSF). Thereafter, USP-AE or USP-DE was mixed with the EcR-AF, EcR-DF, EcR-DE, EcR-EF, or EcR-E, purified in Example 2. Thereafter, [^3H]ponasterone A ([24, 25, 26, 27-3H] Ponasterone A (American Radiolabeled Chemicals Inc.)) with a final concentration of 1.37 nM was further added thereto. The obtained mixture was reacted at 25° C. 40 minutes later, the reaction was terminated by addition of 200 μl of an activated carbon solution (0.5% Charcoal, dextran coated (SIGMA)/20 mm HEPES/50 mM NaCl). A supernatant fraction obtained after centrifugation was mixed with a liquid scintillator, and the radioactivity (DPM) of the obtained mixture was measured using a liquid scintillation counter (ALOKA LSC-5100). The obtained measurement value was defined as the total binding amount. Moreover, the same experiment was carried out with the exception that nonradioactive ponasterone A that was 10,000 times stronger than [^3H]ponasterone A was added. Then, the amount of a ligand non-specifically binding to a receptor was obtained. The amount of a ligand specifically binding to a receptor was defined as a value obtained by subtracting the non-specific binding amount from the total binding amount.
The optimal reaction time for a binding reaction between a complex consisting of EcR-DF and USP-AE and a ligand was analyzed as follows. First, USP-AE with various types of concentrations was added to a certain amount of EcR-DF, and the obtained mixture was then reacted at 25° C. for 40 minutes in a water bath. The concentration of ponasterone A in the reaction solution was set at 1.34 nM. […]
The optimal reaction time for a binding reaction between a complex consisting of EcR-DF and USP-AE and a ligand was analyzed as follows. […]
The optimal reaction temperature for a binding reaction between a complex consisting of EcR-DF and USP-AE and a ligand was analyzed as follows. […]

[5] = target: EcR-DF/USP-AE complex; test: Scatchard analysis of binding of complex to [3H]ponasterone A; conditions: EcR-DF:USP-AE 1:1, FIG. 23, read-out: dissociation constant (Kd)
Method: In Example 6, using EcR-DF and USP-AE, the dissociation constant (Kd) of the complex to ponasterone A was obtained as follows. First, EcR-DF was mixed with USP-AE at a molar ratio of 1:1, and [^3H]ponasterone A with various concentrations was then added to the mixture. An activated carbon solution was added to the reaction solution to eliminate free ligands. The amount of the EcR-DF/USP-AE complex binding to [^3H]ponasterone A (total binding amount) was obtained by measuring the radioactivity of a supernatant fraction obtained after centrifugation. Moreover, the same experiment was carried out with the exception that nonradioactive ponasterone A that was 10,000 times stronger than [^3H]ponasterone A was added, so as to obtained non-specific binding. In FIG. 23, the horizontal axis indicates the specific bound amount of [^3H]ponasterone A (nM), the vertical axis indicates specific binding amount (bound)/total binding amount-specific binding amount (free).

[6] = tested on: EcR-AF combined with USP-AE or USP-DE; test: [3H]ponasterone A binding experiment with full-length EcR recombinant
Method: as §1, with “The expression of a product of interest in the COS-7 cells was confirmed by Western blotting using an anti-FLAG antibody.” left out
In order to prevent the non-specific binding of ponasterone A to a receptor (a complex consisting of an EcR recombinant and a USP recombinant), 1% BSA was first added to a binding buffer (20 mM HEPES (pH7.4)/5 mM DTT/1 nM PMSF). […] A supernatant fraction obtained after centrifugation was mixed with a liquid scintillator, and the radioactivity (DPM) of the obtained mixture was measured using a liquid scintillation counter (ALOKA LSC-5100). […]

[7] = tested on: complex consisting of EcR-DF and USP-DE; test: [3H]ponasterone A binding experiment, charcoal dextran method, recombinants expressed in Escherichia coli; conditions: E. coli-expressed recombinants; 1.37 nM [3H]ponasterone A, 25° C., 40 minutes; FIG. 16
Text: as §4
In order to prevent the non-specific binding of ponasterone A to a receptor (a complex consisting of an EcR recombinant and a USP recombinant), 1% BSA was first added to a binding buffer (20 mM HEPES (pH7.4)/5 mM DTT/1 nM PMSF). Thereafter, USP-AE or USP-DE was mixed with the EcR-AF, EcR-DF, EcR-DE, EcR-EF, or EcR-E, purified in Example 2. Thereafter, [^3H]ponasterone A ([24, 25, 26, 27-3H] Ponasterone A (American Radiolabeled Chemicals Inc.)) with a final concentration of 1.37 nM was further added thereto. The obtained mixture was reacted at 25° C. […] A supernatant fraction obtained after centrifugation was mixed with a liquid scintillator, and the radioactivity (DPM) of the obtained mixture was measured using a liquid scintillation counter (ALOKA LSC-5100). […]

[8] = tested on: EcR or USP (single use); test: [3H]ponasterone A binding experiment, charcoal dextran method, single use of EcR or USP recombinant; conditions: regardless of length, FIG. 16
Text: as §4
as §3, with “Thereafter, USP-AE or USP-DE was mixed with the EcR-AF, EcR-DF, EcR-DE, EcR-EF, or EcR-E, purified in Example 2.” left out, “LSC-5100).” for “LSC-5100). The obtained measurement value was defined as the total binding amount. Moreover, the same experiment was carried out with the exception that nonradioactive ponasterone A that was 10,000 times stronger than [^3H]ponasterone A was added. Then, the amount of a ligand non-specifically binding to a receptor was obtained.”

[9] = coexpressed in COS-7 cells, FIG. 17 lanes 7 and 8
[10] = singly expressed in COS-7 cells, then mixed, FIG. 17 lanes 3 and 4

CCCCCCCCCc1ccc(O)cc1 [4-nonylphenol]
activity of binding to the EcR-DF/USP-AE complex [1]: exhibited activity of binding; also recorded: exhibited strong binding activity

CC(C)(O)CC[C@@H](O)[C@](C)(O)[C@H]1CC[C@@]2(O)C3=CC(=O)[C@@H]4C[C@@H](O)[C@@H](O)C[C@]4(C)[C@H]3CC[C@]12C [20-hydroxyecdysone]
inhibition of the binding of [3H]ponasterone A to the complex [1]: concentration-dependently inhibit
activity of binding to the complex [1]: exhibited activity of binding

C[C@]12CC[C@@H]3c4ccc(O)cc4CC[C@H]3[C@@H]1CC[C@@H]2O [estradiol-17β]
activity of binding to the EcR-DF/USP-AE complex [1]: exhibited activity of binding

CC(C)CC[C@@H](O)[C@](C)(O)[C@H]1CC[C@@]2(O)C3=CC(=O)[C@@H]4C[C@@H](O)[C@@H](O)C[C@]4(C)[C@H]3CC[C@]12C [ponasterone A]
binding to a ligand (ponasterone A) [2, 9]: a strong binding to a ligand was observed
binding to a ligand (ponasterone A) [2, 10]: no such bindings were observed
binding to a ligand (ponasterone A) [3, 9]: a strong binding to a ligand was observed
binding to a ligand (ponasterone A) [3, 10]: no such bindings were observed
time necessary for saturation of the binding ([4]; 25° C., 1.34 nM ponasterone A, EcR-DF:USP-AE 1:1): 60 min
ability to bind to a ligand (specific binding of [3H]ponasterone A) ([4]; E. coli-expressed recombinants, 1.37 nM [3H]ponasterone A, 25° C., 40 minutes, FIG. 16): had ability to bind
effect of salt (NaCl) concentration on specific binding of ligand to the complex ([4]; NaCl 0, 50, 100, 300, 500 mM, 25° C., FIG. 21): as the salt concentration increased, the specific binding of a ligand to the above complex decreased
time necessary for saturation of the binding ([4]; low-temperature chamber at 4° C.): 480 min
pKd [5]: 8.55
binding to a ligand (ponasterone A) ([6]; COS-7 extracts, coexpression and mixing after single expression, FIG. 17): no bindings to a ligand were observed
binding of the full-length EcR recombinant (EcR-AF) to ponasterone A ([6]; both Escherichia coli and mammalian cell expression systems): extremely weak
ability to bind to a ligand (specific binding of [3H]ponasterone A) [7]: had ability to bind
specific binding of [3H]ponasterone A [8]: no specific bindings were observed

CC/C(=C(/CC)c1ccc(O)cc1)c1ccc(O)cc1 [stilbestrol]
activity of binding to the EcR-DF/USP-AE complex [1]: exhibited activity of binding; also recorded: exhibited strong binding activity

CCc1ccc(C(=O)NN(C(=O)c2cc(C)cc(C)c2)C(C)(C)C)cc1 [tebufenozide]
inhibition of the binding of [3H]ponasterone A to the complex [1]: concentration-dependently inhibit
activity of binding to the complex [1]: exhibited activity of binding
